From PubChem BioAssay (NCI) come the findings set out here.

Test systems include OVCAR-3 ovarian; NCI-H522 lung; MALME-3M melanoma; HCC-2998 colon; 786-0 renal; RXF 393 renal; OVCAR-5 ovarian; ACHN renal; CCRF-CEM leukemia; SF-268 CNS.
Experiment in all cases: DTP human tumour cell line panel, 48 h

The structures appear in SMILES notation. Values joined by “and” are separate entries in the source; they are usually repeats but may differ in a detail not shown here. Identical values can stand only once.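 Assay format: 96-well plates, 48-hour exposure. Abbreviation: GI50, concentration required for 50% inhibition of growth. The concentration for full growth arrest is given as TGI.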

As for `O=C(c1nc2ccc([N+](=O)[O-])cc2[nH]c1=O)C(O)c1ccc2c(c1)OCO2` (stereo not given), the TGI with OVCAR-3 ovarian, in the experiment on NCI-H522 lung, with MALME-3M melanoma, with HCC-2998 colon, in the experiment on 786-0 renal and in the experiment with RXF 393 renal was over 100 µM throughout. In addition, the TGI in the experiment with OVCAR-5 ovarian, in the experiment on ACHN renal, with CCRF-CEM leukemia and in the experiment with SF-268 CNS was over 100 µM throughout.
As for `CC(=O)c1ccc2c(c1)C1C=CCC1[C@H](c1cc3c(cc1Br)OCO3)N2` (stereo not given in full), the GI50 in the experiment on OVCAR-3 ovarian is 0.48 µM; in the experiment on NCI-H522 lung, 0.84 µM; with MALME-3M melanoma, 0.86 µM; with HCC-2998 colon, 3.84 µM; in the experiment with 786-0 renal, 1.53 µM; in the experiment with RXF 393 renal it was 1.85 µM. Further, the GI50 with OVCAR-5 ovarian is 3.01 µM; with ACHN renal it was 1.63 µM; in the experiment with CCRF-CEM leukemia, 0.644 µM; in the experiment with SF-268 CNS it was 0.67 µM. Besides, the TGI in the experiment with OVCAR-3 ovarian stood at 1.08 µM; in the experiment on NCI-H522 lung, 4.87 µM; with MALME-3M melanoma, 45.8 µM; in the experiment with HCC-2998 colon, 10.6 µM; in the experiment on 786-0 renal, 15.3 µM; with RXF 393 renal it was 3.35 µM. Besides, the TGI in the experiment with OVCAR-5 ovarian is over 38.8 µM; with ACHN renal it was 22.1 µM; with CCRF-CEM leukemia, 2.77 µM; in the experiment on SF-268 CNS, 19.1 µM.
For `CC(C)c1cnn2c(NCc3ccccc3)cc(NC[C@H]3CCNC[C@@H]3O)nc12`, the GI50 was 0.489 µM and 0.707 µM in the experiment with OVCAR-3 ovarian; 0.844 µM and 0.438 µM with NCI-H522 lung; 0.805 µM and 0.3 µM in the experiment on MALME-3M melanoma; 0.534 µM and 0.645 µM in the experiment with HCC-2998 colon; 0.547 µM and 0.779 µM in the experiment on 786-0 renal; 0.352 µM and 1.03 µM in the experiment with RXF 393 renal. For the same compound, the GI50 in the experiment on OVCAR-5 ovarian is 0.312 µM and 0.575 µM; with ACHN renal it was 0.833 µM and 1.55 µM; with CCRF-CEM leukemia it was 0.31 µM and 0.672 µM; in the experiment with SF-268 CNS, 0.402 µM and 0.648 µM. Moreover, the TGI in the experiment with OVCAR-3 ovarian is 8.66 µM and 4.17 µM; in the experiment on NCI-H522 lung it was 2.7 µM and 2.43 µM; in the experiment on MALME-3M melanoma it was 2.6 µM and 2.72 µM; in the experiment on HCC-2998 colon, 5.55 µM and 3.51 µM; in the experiment with 786-0 renal, 12.3 µM and 12.2 µM; with RXF 393 renal, 1.09 µM and 2.83 µM. The TGI in the experiment with OVCAR-5 ovarian was 6.72 µM and 5.38 µM; in the experiment on ACHN renal, 10.5 µM and 9.73 µM; in the experiment on CCRF-CEM leukemia, 6.01 µM and 14.9 µM; with SF-268 CNS, 4.63 µM and 2.72 µM.
Take `CS(=O)(=O)CCNCc1cc(-c2cc3c(Nc4ccc(OCc5cccc(F)c5)c(Cl)c4)ncnc3s2)cs1`: the GI50 is 6.82 µM in the experiment on OVCAR-3 ovarian; 9.64 µM with NCI-H522 lung; 19.1 µM with MALME-3M melanoma; 6.59 µM in the experiment with HCC-2998 colon; 6.44 µM with 786-0 renal; 2.27 µM in the experiment with RXF 393 renal. The GI50 with OVCAR-5 ovarian was 13.5 µM; with ACHN renal, 7.35 µM; in the experiment on CCRF-CEM leukemia, 11 µM; with SF-268 CNS, 11.3 µM. Further, the TGI was over 25 µM in the experiment with OVCAR-3 ovarian; over 25 µM in the experiment with NCI-H522 lung; over 25 µM in the experiment with MALME-3M melanoma; 21.5 µM in the experiment on HCC-2998 colon; over 18.7 µM with 786-0 renal; 11.8 µM in the experiment on RXF 393 renal. Moreover, the TGI in the experiment on OVCAR-5 ovarian, with ACHN renal, with CCRF-CEM leukemia and with SF-268 CNS was over 25 µM throughout.
For `CC(C)CCC[C@@H](C)[C@H]1CC[C@H]2[C@@H]3CC[C@H]4C[C@@H](CCC=C(c5cc(Cl)c(O)c(C(=O)O)c5)c5cc(Cl)c(O)c(C(=O)O)c5)CC[C@]4(C)[C@H]3CC[C@]12C`, the TGI with OVCAR-3 ovarian, in the experiment with NCI-H522 lung, in the experiment on MALME-3M melanoma, in the experiment on HCC-2998 colon, with 786-0 renal and in the experiment with RXF 393 renal was over 100 µM each time. Moreover, the total growth inhibition concentration (TGI) with OVCAR-5 ovarian, in the experiment on ACHN renal, with CCRF-CEM leukemia and in the experiment on SF-268 CNS was over 100 µM each time.
With `COc1ccc(C(=O)O[C@H]2[C@@H]3C=CO[C@@H](OC4OC(CO)C(O)C(O)C4O)[C@@H]3[C@@]3(CO)O[C@@H]23)cc1O` (stereo not given in full), the TGI in the experiment on OVCAR-3 ovarian, in the experiment with NCI-H522 lung, in the experiment on MALME-3M melanoma, in the experiment on HCC-2998 colon, with 786-0 renal and with RXF 393 renal was over 100 µM in each case. For the same compound, the TGI with OVCAR-5 ovarian, with ACHN renal, with CCRF-CEM leukemia and in the experiment on SF-268 CNS was over 100 µM each time.
`OCc1ccc(N2CCc3cccc(F)c3C2)cc1Cl`: the GI50 with OVCAR-3 ovarian was under 0.0169 µM; with NCI-H522 lung it was 13.4 µM; in the experiment on MALME-3M melanoma, 24.1 µM; in the experiment with HCC-2998 colon, 1.96 µM; in the experiment with 786-0 renal, 16.7 µM; in the experiment on RXF 393 renal it was 12.6 µM. Further, the GI50 in the experiment on OVCAR-5 ovarian is 0.0253 µM; in the experiment with ACHN renal, 20.7 µM; with CCRF-CEM leukemia, 24.9 µM; in the experiment on SF-268 CNS it was 24.5 µM. Besides, the TGI with OVCAR-3 ovarian turned out to be 0.0505 µM; with NCI-H522 lung, 36.3 µM; with MALME-3M melanoma, 63.6 µM; in the experiment with HCC-2998 colon, 11 µM; in the experiment with 786-0 renal it was 44.7 µM; in the experiment on RXF 393 renal, 27.9 µM. The concentration for total growth inhibition (TGI) was 0.151 µM with OVCAR-5 ovarian, 67.3 µM in the experiment with ACHN renal, 99.1 µM in the experiment with CCRF-CEM leukemia and over 89.4 µM in the experiment with SF-268 CNS.
As to `COc1cc2nc(SCc3cc(OC)c(OC)c(OC)c3)n(Cc3ccccc3)c(=O)c2cc1OC`, the GI50 in the experiment with OVCAR-3 ovarian was 2.24 µM; in the experiment on NCI-H522 lung, 0.744 µM; with MALME-3M melanoma it was 2.83 µM; in the experiment on HCC-2998 colon, 3.71 µM; in the experiment with 786-0 renal, 5.34 µM; in the experiment with RXF 393 renal it was 1.02 µM. Also, the GI50 is 16.3 µM with OVCAR-5 ovarian, 4.83 µM in the experiment on ACHN renal, 3 µM in the experiment with CCRF-CEM leukemia and 5.28 µM in the experiment on SF-268 CNS. Moreover, the TGI was 8.37 µM in the experiment on OVCAR-3 ovarian; 5.83 µM with NCI-H522 lung; 27 µM in the experiment on MALME-3M melanoma; over 100 µM with HCC-2998 colon; 27.3 µM with 786-0 renal; 10.8 µM in the experiment with RXF 393 renal. Moreover, the TGI was over 100 µM in the experiment with OVCAR-5 ovarian, 24.1 µM in the experiment with ACHN renal, over 100 µM in the experiment on CCRF-CEM leukemia and 47.4 µM with SF-268 CNS.
